According to patent US20170157212A1, “CDK MODULATORS AND METHODS FOR THE TREATMENT OF CANCER” (Salk Institute for Biological Studies, priority 2015, published 2017):

Legend:
[1] = test system: CHK1, RPL26, TMA7 gene promoters in U2OS cells; test: Chromatin immunoprecipitation (ChIP) at CDK12 target gene promoters; assay type: cell-based, human; details: 12 hr treatment
Description: Briefly, 5×10^6 cells were twice washed with ice-cold PBS and serially cross-linked with 2 mM DSG (Disuccinimidylglutarate) for 20 min and 1% (v/v) formaldehyde for 10 min at room temperature. The cross-linking reaction was stopped by adding glycine to a final concentration of 0.125 M for 10 min at room temperature. Cells were washed twice with cold PBS. […] ChIP DNA is analyzed by SYBR® Green master mixes (Life Technologies) using described primer sets. qPCR is carried out in the ABI7300 (Applied Biosystems) with a 10 min DNA denaturation step at 95° C., followed by 40 cycles of 15 s at 95° C., 60 s at 60° C. […]
ChIP experiments were carried out as described in the previous report. […] ChIP DNA is analyzed by SYBR® Green master mixes (Life Technologies) using described primer sets. qPCR is carried out in the ABI7300 (Applied Biosystems) with a 10 min DNA denaturation step at 95° C., followed by 40 cycles of 15 s at 95° C., 60 s at 60° C. […]

U2OS cells [2] = details: CDK12 siRNA, 1 μM for 12 hr
Description: Top panel: U2OS cells were treated with tBHQ (tert-Butylhydroquinone) 100 μM for 4 h, and cell extracts were analyzed by co-immunoprecipitation with anti-CDK12 antisera for association of CRIF1 or CCNK.

Cdk12 = Cdk12 (Homo sapiens, UniProt Q9NYV4); details: have been shown (prior knowledge); cited from earlier work
Cdk12, sequence (Q9NYV4 whole entry): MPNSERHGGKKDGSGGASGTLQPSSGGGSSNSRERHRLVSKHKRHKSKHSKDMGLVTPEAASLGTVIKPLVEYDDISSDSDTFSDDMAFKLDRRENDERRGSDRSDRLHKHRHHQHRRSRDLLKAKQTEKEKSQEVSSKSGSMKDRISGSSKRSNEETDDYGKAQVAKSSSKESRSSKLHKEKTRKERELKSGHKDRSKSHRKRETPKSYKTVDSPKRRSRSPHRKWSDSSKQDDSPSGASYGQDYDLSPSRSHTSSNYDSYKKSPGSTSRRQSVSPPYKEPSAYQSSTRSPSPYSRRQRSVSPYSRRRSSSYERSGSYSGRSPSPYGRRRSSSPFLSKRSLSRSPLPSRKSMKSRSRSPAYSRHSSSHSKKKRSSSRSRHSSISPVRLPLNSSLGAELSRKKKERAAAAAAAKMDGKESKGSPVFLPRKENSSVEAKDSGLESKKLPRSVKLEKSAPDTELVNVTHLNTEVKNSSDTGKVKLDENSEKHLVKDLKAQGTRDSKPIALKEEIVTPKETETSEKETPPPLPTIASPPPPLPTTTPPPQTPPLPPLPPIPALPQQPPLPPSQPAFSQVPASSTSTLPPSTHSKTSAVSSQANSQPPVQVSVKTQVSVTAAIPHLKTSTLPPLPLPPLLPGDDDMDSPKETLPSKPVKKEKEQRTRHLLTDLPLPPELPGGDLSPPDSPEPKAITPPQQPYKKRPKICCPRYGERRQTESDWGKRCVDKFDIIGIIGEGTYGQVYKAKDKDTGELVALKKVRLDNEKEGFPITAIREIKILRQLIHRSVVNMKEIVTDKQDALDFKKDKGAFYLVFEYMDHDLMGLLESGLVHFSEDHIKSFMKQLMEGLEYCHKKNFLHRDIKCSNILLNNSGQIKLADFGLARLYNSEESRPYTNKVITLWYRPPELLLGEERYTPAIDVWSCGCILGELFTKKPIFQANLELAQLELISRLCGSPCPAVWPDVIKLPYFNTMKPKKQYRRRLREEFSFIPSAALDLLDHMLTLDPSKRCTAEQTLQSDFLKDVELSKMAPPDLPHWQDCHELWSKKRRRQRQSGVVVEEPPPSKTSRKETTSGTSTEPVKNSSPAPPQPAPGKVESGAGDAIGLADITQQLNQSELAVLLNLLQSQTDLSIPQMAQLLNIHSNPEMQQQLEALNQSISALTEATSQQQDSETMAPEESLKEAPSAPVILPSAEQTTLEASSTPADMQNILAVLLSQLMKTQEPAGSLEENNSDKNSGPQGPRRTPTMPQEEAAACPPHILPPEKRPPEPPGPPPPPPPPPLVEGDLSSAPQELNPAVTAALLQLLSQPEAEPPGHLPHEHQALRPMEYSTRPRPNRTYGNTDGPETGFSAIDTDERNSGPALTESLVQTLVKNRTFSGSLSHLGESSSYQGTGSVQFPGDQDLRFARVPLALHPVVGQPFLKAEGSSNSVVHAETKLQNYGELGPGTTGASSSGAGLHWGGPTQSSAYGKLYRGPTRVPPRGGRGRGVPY
Cdk12, sequence (O75909 whole entry partner): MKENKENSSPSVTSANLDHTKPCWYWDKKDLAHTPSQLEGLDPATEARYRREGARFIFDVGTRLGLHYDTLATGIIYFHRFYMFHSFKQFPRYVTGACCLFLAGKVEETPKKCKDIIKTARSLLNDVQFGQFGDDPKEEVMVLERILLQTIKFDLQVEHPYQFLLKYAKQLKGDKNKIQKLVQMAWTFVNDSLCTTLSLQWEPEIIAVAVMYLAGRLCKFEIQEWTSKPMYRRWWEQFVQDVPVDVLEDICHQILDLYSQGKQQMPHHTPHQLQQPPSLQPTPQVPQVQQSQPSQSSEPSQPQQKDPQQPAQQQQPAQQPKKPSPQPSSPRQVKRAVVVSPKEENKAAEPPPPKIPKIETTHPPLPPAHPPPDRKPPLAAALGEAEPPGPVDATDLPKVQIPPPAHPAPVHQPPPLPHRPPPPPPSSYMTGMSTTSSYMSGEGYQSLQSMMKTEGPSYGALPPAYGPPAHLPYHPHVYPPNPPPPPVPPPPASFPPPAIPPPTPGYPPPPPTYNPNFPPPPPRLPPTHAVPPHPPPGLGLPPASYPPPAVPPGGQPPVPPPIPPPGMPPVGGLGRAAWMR

[3] = test system: eIF4G-bound mRNAs in U2OS cells; test: RIP-seq of eIF4G-bound mRNAs; assay type: cell-based, human; details: transcriptional targets excluded
Description: All steps were conducted at 4° C. in RNase-free conditions. U20S cells (5×10^6) were transfected with the indicated siRNAs and washed twice with cold PBS. […] Reverse transcription and qRT-PCR for quantitative RNA analysis was carried out as described above.
All steps were conducted at 4° C. in RNase-free conditions. […] Reverse transcription and qRT-PCR for quantitative RNA analysis was carried out as described above.
High throughput sequencing was performed. For detail of analysis, sequenced reads were quality-tested using FASTQC and aligned to the hg19 human genome using the STAR aligner version 2.4.0 k (Dobin et al., Bioinformatics. 2013; 29(1):15-21. doi: 10.1093/bioinformatics/bts635. pmid:23104886). Mapping was carried out using default parameters (up to 10 mismatches per read, and up to 9 multi-mapping locations per read). […] Raw gene expression was quantified across all gene exons (RNA-Seq) or across gene bodies (RIP-Seq), using the top-expressed isoform as proxy for gene expression, and differential gene expression was carried out using the edgeR package version 3.6.8 (Robinson et al. (2010) Bioinformatics, 26, pp. 1) using duplicates to compute within-group dispersion. […]

[4] = test system: CRIF1-CDK12 interaction in U2OS cells; test: Co-immunoprecipitation of CRIF1 with CDK12:CCNK under oxidative stress; assay type: cell-based, human; details: 100 μM for 4 h, reciprocal co-immunoprecipitation
Description: (§1) FIGS. 7A-7F. […] (F) Oxidative stress activates the CDK12 pathway.
(§2) CDK12 was also recently shown to be essential for NRF2-dependent transcription (Li et al., Sci Rep 6, 21455, 2016). To examine whether CDK12 activity is regulated globally by oxidative stress in human cells, U2OS cells were treated with tBHQ (tert-butylhydroquinone) to induce mitochondrial oxidative stress. […] In contrast, oxidative stress had no effect on the interaction of CCNK with CDK12.

U2OS cells [5] = test: Immunoblot of CDK12 substrate phosphorylation under oxidative stress; assay type: cell-based, human; details: 100 μM for 4 h
Description: as §1, §2

CC[C@H](C)[C@@H]1NC(=O)CNC(=O)[C@@H]2Cc3c([nH]c4cc(O)ccc34)[S+]([O-])C[C@@H](NC(=O)CNC1=O)C(=O)N[C@@H](CC(N)=O)C(=O)N1C[C@H](O)C[C@H]1C(=O)N[C@@H]([C@@H](C)[C@@H](O)CO)C(=O)N2 (stereo in doubt) [α-amanitin]
association of eIF4E and 4E-BP1 at the CHK1 promoter [1]: largely abolished | occupancy of RNAPII or CDK12 at the CHK1 promoter [1]: without affecting

O=C(c1cc(Cc2n[nH]c(=O)c3ccccc23)ccc1F)N1CCN(C(=O)C2CC2)CC1 [Olaparib, olaparib]
cell survival with CDK12 depletion (U2OS cells [2]): sensitizes

CN(C)C/C=C/C(=O)Nc1ccc(C(=O)Nc2cccc(Nc3ncc(Cl)c(-c4c[nH]c5ccccc45)n3)c2)cc1 [THZ1]
inhibition of Cdk12 kinase activity (Cdk12): modestly inhibit

CN1CC[C@H](c2c(O)cc(O)c3c(=O)cc(-c4ccccc4Cl)oc23)[C@H](O)C1 [flavopiridol]
inhibition of Cdk12 kinase activity (Cdk12): modestly inhibit

CO[C@H]1C[C@@H]2CC[C@@H](C)[C@@](O)(O2)C(=O)C(=O)N2CCCC[C@H]2C(=O)O[C@H]([C@H](C)C[C@@H]2CC[C@@H](O)[C@H](OC)C2)CC(=O)[C@H](C)/C=C(\C)[C@@H](O)[C@@H](OC)C(=O)[C@H](C)C[C@H](C)/C=C/C=C/C=C/1C [rapamycin]
number of rapamycin-sensitive mRNAs that require mTORC1 to efficiently bind eIF4G [3]: 2,961

CC(C)(C)c1cc(O)ccc1O [tBHQ, tert-butylhydroquinone]
association of CRIF1 with the CDK12:CCNK complex [4]: greatly reduced | RNAPII CTD-Ser2 and 4E-BP1 S65, T70 phosphorylation (U2OS cells [5]): global increase | mTORC1-dependent 4E-BP1 T37/46 phosphorylation levels (U2OS cells [5]): only modestly increased
